Ten compounds from US20100022491A1, “4-HYDROXY-2-OXO-2,3-DIHYDRO-1,3-BENZOTHIAZOL-7YL COMPOUNDS FOR MODULATION OF B2-ADRENORECEPTOR ACTIVITY” (ASTRAZENECA AB, priority 2006, published 2010) can be followed below.

Experiment [1] concerns the target T1, Adrenergic β2 (Homo sapiens, UniProt P07550).
T1 construct: Adherent H292 cells were removed from tissue culture flasks; endogenous in cells; host or cells: H292 cells
The experiment in a line: Adrenergic β2 mediated cAMP production in H292 cells. The experiment is classed as cell-based. To be noted: for β2 pEC50 / EC50: H292 cells, cAMP by AlphaScreen, 60 minutes at room temperature, rolipram 300 μM; for EC50: read-out: β2 pEC50 (converted); for β2 Int Act: Intrinsic Activity as a fraction relative to the maximum activity determined for formoterol. The method, boiled down:
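cAMP accumulation in adherent H292 cells, measured by AlphaScreen and calibrated with cAMP standards. Compounds incubated 60 min at room temperature after 10 min rolipram (final 300 μM; vehicle 1.6% DMSO). pEC50 and intrinsic activity, as a fraction of formoterol's maximum, from four-parameter logistic fit.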
On the technique in general: Changes in cAMP serve as a functional read-out for many G protein-coupled receptors.

The target of experiment [2] is T2, recombinant human Dopamine Subtype D2s receptors (Homo sapiens, UniProt P14416).
T2 construct: purchased Perkin Elmer
The experiment in a line: Dopamine D2 selectivity binding assay ([3H]-spiperone). The conditions noted are these: inhibition of [3H]-spiperone (0.16 nM) binding; for IC50: read-out: D2 bind pIC50 (converted). In a few lines: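 Displacement of [3H]-spiperone (0.16 nM final) from human D2s receptor membranes in pH 7.4 HEPES buffer over 2 h at room temperature, then filtration and scintillation counting. Specific binding taken as vehicle minus 10 μM haloperidol wells. Potency given as pIC50 from a four-parameter logistic curve.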

For experiment [3], the target named is T3, recombinant human adrenergic beta 1 receptors (Homo sapiens, UniProt P08588).
T3 construct: purchased Euroscreen
The experiment in a line: Adrenergic β1 selectivity binding assay ([125I]-Iodocyanopindolol). The conditions noted are these: inhibition of [125I]-Iodocyanopindolol (0.036 nM) binding; for IC50: read-out: β1 bind p IC50 (converted). In a few lines: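 Displacement of [^125I]-Iodocyanopindolol (0.036 nM final) from human β1 receptor membranes, 2 hours at room temperature, pH 7.4 HEPES/EDTA/NaCl buffer. After filtration, scintillation counting; NSB set with 10 μM propranolol and subtracted. Four-parameter logistic fitting gave pIC50.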

Counter-ions that a name gives are not always drawn.

T1 sequence (P07550 whole entry): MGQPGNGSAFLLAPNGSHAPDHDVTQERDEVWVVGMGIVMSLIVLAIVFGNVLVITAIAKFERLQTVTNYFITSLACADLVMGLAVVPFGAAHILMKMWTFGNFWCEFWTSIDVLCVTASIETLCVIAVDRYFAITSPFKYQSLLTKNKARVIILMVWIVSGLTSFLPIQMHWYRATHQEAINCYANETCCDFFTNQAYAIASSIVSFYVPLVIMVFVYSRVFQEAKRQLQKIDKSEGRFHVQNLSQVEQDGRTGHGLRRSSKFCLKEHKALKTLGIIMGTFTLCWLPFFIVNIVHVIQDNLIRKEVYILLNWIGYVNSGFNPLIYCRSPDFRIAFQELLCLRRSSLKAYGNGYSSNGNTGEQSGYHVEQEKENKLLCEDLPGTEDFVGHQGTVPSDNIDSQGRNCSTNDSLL
T3 sequence (P08588 whole entry): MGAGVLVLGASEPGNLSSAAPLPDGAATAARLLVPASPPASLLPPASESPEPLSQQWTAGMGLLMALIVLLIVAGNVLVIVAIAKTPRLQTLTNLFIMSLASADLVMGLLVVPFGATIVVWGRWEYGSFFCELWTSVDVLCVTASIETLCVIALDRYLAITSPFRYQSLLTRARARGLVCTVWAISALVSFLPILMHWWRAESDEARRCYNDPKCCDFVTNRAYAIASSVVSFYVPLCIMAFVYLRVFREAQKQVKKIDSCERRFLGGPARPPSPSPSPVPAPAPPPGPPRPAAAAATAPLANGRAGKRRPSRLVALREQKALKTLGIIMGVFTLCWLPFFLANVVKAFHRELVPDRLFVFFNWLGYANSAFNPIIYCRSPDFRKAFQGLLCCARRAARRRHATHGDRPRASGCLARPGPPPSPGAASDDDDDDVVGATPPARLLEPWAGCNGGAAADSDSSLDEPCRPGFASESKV
T2 sequence (P14416 1-414 isoform P14416-2): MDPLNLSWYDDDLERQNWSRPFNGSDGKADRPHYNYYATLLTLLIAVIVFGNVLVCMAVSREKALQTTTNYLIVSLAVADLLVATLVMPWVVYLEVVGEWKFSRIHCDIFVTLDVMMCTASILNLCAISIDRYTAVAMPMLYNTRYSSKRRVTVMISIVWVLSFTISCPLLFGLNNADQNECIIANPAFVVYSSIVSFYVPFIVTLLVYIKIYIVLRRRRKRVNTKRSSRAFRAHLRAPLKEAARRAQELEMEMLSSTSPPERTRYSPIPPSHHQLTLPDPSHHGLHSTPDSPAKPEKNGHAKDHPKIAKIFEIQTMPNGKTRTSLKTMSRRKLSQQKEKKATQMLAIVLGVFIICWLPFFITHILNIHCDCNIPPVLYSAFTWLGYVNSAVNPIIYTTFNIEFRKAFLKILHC

On to `O=C(CCNCCc1cccc(F)c1F)N(CCNCCc1ccc(O)c2[nH]c(=O)sc12)C1CCCCC1` [Example 93, N-Cyclohexyl-N^3-[2-(2,3-difluorophenyl)ethyl]-N-(2-{[2-(4-hydroxy-2-oxo-2,3-dihydro-1,3-benzothiazol-7-yl)ethyl]amino}ethyl)-β-alaninamide dihydrobromide salt], for which the “β2 pEC50” value in experiment [1] worked out at 8.6. In addition, the “D2 bind pIC50” value in experiment [2] is 6.5. The “β1 bind p IC50” value in experiment [3] amounted to 5.2.
The matching figures for `O=C(CCNCCc1ccc(Cl)c(Cl)c1)N(CCNCCc1ccc(O)c2[nH]c(=O)sc12)C1CCOCC1` [Example 94, N^3-[2-(3,4-Dichlorophenyl)ethyl]-N-(2-{[2-(4-hydroxy-2-oxo-2,3-dihydro-1,3-benzothiazol-7-yl)ethyl]amino}ethyl)-N-(tetrahydro-2H-pyran-4-yl)-β-alaninamide dihydrobromide salt]: 8.1, 6.1 and 5.7.
The matching figures for `O=C(CCNCCc1cccc(F)c1)N(CCNCCc1ccc(O)c2[nH]c(=O)sc12)C1CCCCCC1` [Example 95, N-Cycloheptyl-N^3-[2-(3-fluorophenyl)ethyl]-N-(2-{[2-(4-hydroxy-2-oxo-2,3-dihydro-1,3-benzothiazol-7-yl)ethyl]amino}ethyl)-β-alaninamide dihydromide salt]: 8.6, 6.7 and 5.5.
Take `O=C(CCNCCc1cccc(F)c1)N(CCNCCc1ccc(O)c2[nH]c(=O)sc12)C1CCCCC1` [Example 96, N-Cyclohexyl-N^3-[2-(3-fluorophenyl)ethyl]-N-(2-{[2-(4-hydroxy-2-oxo-2,3-dihydro-1,3-benzothiazol-7-yl)ethyl]amino}ethyl)-β-alaninamide dihydrobromide salt]: in experiment [1], the EC50 is 0.00251 µM and the “β2 Int Act” value came out at 0.85. In addition, the IC50 in experiment [2] is 0.398 µM. Besides, the IC50 in experiment [3] was 6.31 µM.
As for `O=C(CCNCCc1ccccc1)N(CCNCCc1ccc(O)c2[nH]c(=O)sc12)C1CCCCCC1` [Example 98, N-Cycloheptyl-N-(2-{[2-(4-hydroxy-2-oxo-2,3-dihydro-1,3-benzothiazol-7-yl)ethyl]amino}ethyl)-N^3-(2-phenylethyl)-β-alaninamide dihydrobromide salt], the EC50 in experiment [1] is 0.00158 µM. For the same compound, the “β2 Int Act” value in experiment [1] (dihydrobromide salt) is given as 0.8. For the same compound, the values for the IC50 in experiment [2] and in experiment [3] were 0.158 µM and 2 µM, respectively.
In the case of `O=C(NCc1ccccc1)c1ccc(CCNCCC(=O)N(CCNCCc2ccc(O)c3[nH]c(=O)sc23)C2CCCCCC2)cc1` [Example 100, N-Benzyl-4-[2-({3-[cycloheptyl(2-{[2-(4-hydroxy-2-oxo-2,3-dihydro-1,3-benzothiazol-7-yl)ethyl]amino}ethyl)amino]-3-oxopropyl}amino)ethyl]benzamide bis-trifluoroacetic acid salt], in experiment [1], the EC50 is 0.00631 µM and the “β2 Int Act” value was 0.81. Also, the IC50 in experiment [2] is 0.0316 µM. Moreover, the IC50 in experiment [3] is 1.26 µM.
As for `CCCC[C@@H](C)N(CCNCCc1ccc(O)c2[nH]c(=O)sc12)C(=O)CCNCCc1ccccc1` [Example 101, N-(2-{[2-(4-Hydroxy-2-oxo-2,3-dihydro-1,3-benzothiazol-7-yl)ethyl]amino}ethyl)-N-[(1R)-1-methylpentyl]-N^3-(2-phenylethyl)-β-alaninamide bis-trifluoroacetic acid salt], in experiment [1], the EC50 was 0.00251 µM and the “β2 Int Act” value is given as 0.98. In addition, the IC50 in experiment [2] is 0.0316 µM. For the same compound, the IC50 in experiment [3] is 3.98 µM.
For `CCCC[C@H](C)N(CCNCCc1ccc(O)c2[nH]c(=O)sc12)C(=O)CCNCCc1ccccc1` [Example 102, N-(2-{[2-(4-Hydroxy-2-oxo-2,3-dihydro-1,3-benzothiazol-7-yl)ethyl]amino}ethyl)-N-[(1S)-1-methylpentyl]-N^3-(2-phenylethyl)-β-alaninamide bis-trifluoroacetic acid salt] the same measures were 0.0794 µM, 0.23, 0.0794 µM and 1.26 µM.
Consider `CC(CN(C(=O)CCNCCc1cccc(F)c1)C1CCCCCC1)NCCc1ccc(O)c2[nH]c(=O)sc12` (stereo not drawn) [Example 104, N-Cycloheptyl-N^3-[2-(3-fluorophenyl)ethyl]-N-(2-{[2-(4-hydroxy-2-oxo-2,3-dihydro-1,3-benzothiazol-7-yl)ethyl]amino}propyl)-β-alaninamide bis-trifluoroacetic acid salt], for which, in experiment [1], the EC50 was 0.00501 µM and the “β2 Int Act” value is listed as 0.81. Besides, the IC50 in experiment [2] is 0.0631 µM. In addition, the IC50 in experiment [3] was 0.794 µM.
For `CC(CN(C(=O)CCNCCc1ccccc1)C1CCCCC1)NCCc1ccc(O)c2[nH]c(=O)sc12` (stereo not drawn) [Example 105, N-Cyclohexyl-N-(2-{[2-(4-hydroxy-2-oxo-2,3-dihydro-1,3-benzothiazol-7-yl)ethyl]amino}propyl)-N^3-(2-phenylethyl)-β-alaninamide bis-trifluoroacetic acid salt] the same measures were 0.00631 µM, 0.86, 0.316 µM and 1.58 µM.
